Experimental data published in ChEMBL document CHEMBL1155215, “Green chemoselective synthesis of thiazolo[3,2-a]pyridine derivatives and evaluation of their antioxidant and cytotoxic activities” (Bioorg Med Chem Lett, 2009).

Test system: Radical scavenging activity
Experiment: Antioxidant activity assessed as DPPH free radical scavenging activity at 1 mg assessed per mg
Format: functional
Conditions: not given

SMILES | inhibition [%]
COc1ccc(C2C(C#N)=C(N)N3C(=O)CSC3=C2C#N)cc1 (centres undefined) | 140
N#CC1=C(N)n2c(s/c(=C\c3ccc(O)c([N+](=O)[O-])c3)c2=O)=C(C#N)C1c1ccc(O)c([N+](=O)[O-])c1 (centres undefined) | 109
N#CC1=C(N)n2c(s/c(=C\c3cccc([N+](=O)[O-])c3)c2=O)=C(C#N)C1c1cccc([N+](=O)[O-])c1 (centres undefined) | 45.9
N#CC1=C(N)N2C(=O)CSC2=C(C#N)C1c1ccc(Br)cc1 (centres undefined) | 67.7
N#CC1=C(N)n2c(s/c(=C\c3ccc(Br)cc3)c2=O)=C(C#N)C1c1ccc(Br)cc1 (centres undefined) | 108

Test system: not listed separately
Experiment: Antioxidant activity assessed as hydroxyl free radical scavenging activity at 1 mg assessed per mg
Format: functional
Conditions: not given

SMILES | inhibition [%]
N#CC1=C(N)n2c(s/c(=C\c3cccc([N+](=O)[O-])c3)c2=O)=C(C#N)C1c1cccc([N+](=O)[O-])c1 (centres undefined) | 56.8
N#CC1=C(N)n2c(s/c(=C\c3ccc(Br)cc3)c2=O)=C(C#N)C1c1ccc(Br)cc1 (centres undefined) | 125
O=C1O[C@H]([C@@H](O)CO)C(O)=C1O | 109

Test system: not listed separately
Experiment: Cytotoxicity against C57BL/6 mouse spleen lymphocytes assessed as inhibition of cell proliferation at 1 mg/ml after 48 hrs by MTT assay
Format: tissue-based, Lymphocyte
Conditions: not given

SMILES | inhibition at 48 h, 1 mg/ml [%]
N#CC1=C(N)N2C(=O)CSC2=C(C#N)C1c1ccc(Cl)cc1Cl (centres undefined) | 55.4
COc1ccc(C2C(C#N)=C(N)N3C(=O)CSC3=C2C#N)cc1 (centres undefined) | 70.6
N#CC1=C(N)N2C(=O)CSC2=C(C#N)C1c1ccc2c(c1)OCO2 (centres undefined) | 62
N#CC1=C(N)N2C(=O)CSC2=C(C#N)C1c1ccc(F)cc1 (centres undefined) | 66.9
N#CC1=C(N)N2C(=O)CSC2=C(C#N)C1c1ccccc1Cl (centres undefined) | 60.4
Cc1ccc(C2C(C#N)=C(N)N3C(=O)CSC3=C2C#N)cc1 (centres undefined) | 63.8
N#CC1=C(N)n2c(s/c(=C\c3cccs3)c2=O)=C(C#N)C1c1cccs1 (centres undefined) | 55.4
N#CC1=C(N)n2c(s/c(=C\c3ccc(O)c([N+](=O)[O-])c3)c2=O)=C(C#N)C1c1ccc(O)c([N+](=O)[O-])c1 (centres undefined) | 5.31
N#CC1=C(N)n2c(s/c(=C\c3cccc([N+](=O)[O-])c3)c2=O)=C(C#N)C1c1cccc([N+](=O)[O-])c1 (centres undefined) | 60.4
N#CC1=C(N)N2C(=O)CSC2=C(C#N)C1c1ccc(Br)cc1 (centres undefined) | 69.6
N#CC1=C(N)N2C(=O)CSC2=C(C#N)C1c1ccccc1 (centres undefined) | 64.8
N#CC1=C(N)n2c(s/c(=C\c3ccc(Br)cc3)c2=O)=C(C#N)C1c1ccc(Br)cc1 (centres undefined) | 71.3
N#CC1=C(N)n2c(s/c(=C\c3ccc([N+](=O)[O-])cc3)c2=O)=C(C#N)C1c1ccc([N+](=O)[O-])cc1 (centres undefined) | 51.7

Test system: HCT-116
Experiment: Cytotoxicity against human HCT116 cells assessed as inhibition of cell proliferation at 1 mg/ml after 48 hrs by MTT assay
Format: functional
Conditions: HCT-116, 48 h

SMILES | inhibition at 1000 µg/mL [%]
N#CC1=C(N)N2C(=O)CSC2=C(C#N)C1c1ccc(Cl)cc1Cl (centres undefined) | 29.9
COc1ccc(C2C(C#N)=C(N)N3C(=O)CSC3=C2C#N)cc1 (centres undefined) | 50.2
N#CC1=C(N)N2C(=O)CSC2=C(C#N)C1c1ccc2c(c1)OCO2 (centres undefined) | 51.8
N#CC1=C(N)N2C(=O)CSC2=C(C#N)C1c1ccc(F)cc1 (centres undefined) | 47.8
N#CC1=C(N)N2C(=O)CSC2=C(C#N)C1c1ccccc1Cl (centres undefined) | 54.1
Cc1ccc(C2C(C#N)=C(N)N3C(=O)CSC3=C2C#N)cc1 (centres undefined) | 47.4
N#CC1=C(N)n2c(s/c(=C\c3cccs3)c2=O)=C(C#N)C1c1cccs1 (centres undefined) | 63.8
N#CC1=C(N)n2c(s/c(=C\c3ccc(O)c([N+](=O)[O-])c3)c2=O)=C(C#N)C1c1ccc(O)c([N+](=O)[O-])c1 (centres undefined) | 41.2
N#CC1=C(N)n2c(s/c(=C\c3cccc([N+](=O)[O-])c3)c2=O)=C(C#N)C1c1cccc([N+](=O)[O-])c1 (centres undefined) | 53
N#CC1=C(N)N2C(=O)CSC2=C(C#N)C1c1ccc(Br)cc1 (centres undefined) | 43.5
N#CC1=C(N)N2C(=O)CSC2=C(C#N)C1c1ccccc1 (centres undefined) | 50.8
N#CC1=C(N)n2c(s/c(=C\c3ccc(Br)cc3)c2=O)=C(C#N)C1c1ccc(Br)cc1 (centres undefined) | 56.6
N#CC1=C(N)n2c(s/c(=C\c3ccc([N+](=O)[O-])cc3)c2=O)=C(C#N)C1c1ccc([N+](=O)[O-])cc1 (centres undefined) | 35.5
